Paper PMC3003753 (Journal of medicinal chemistry, 2010)
Each block holds one molecule with its values, some of them ahead of it.

What was measured:
[1] = biological target: CCR5 (Homo sapiens, UniProt P51681); experiment: cAMP assay, U87CD4CCR5 cells stimulated with CCL5; type: cell-based; settings: 150 ng/mL CCL5
[2] = Further preclinical studies of compound 5; type: in vivo; settings: data not shown
[3] = tested on: carrageenan-induced mouse paw inflammation; experiment: Carrageenan-induced paw edema model; type: in vivo; settings: for Paw inflammation inhibition percentage: 10 mg/kg i.p. daily; for Paw inflammation suppression compared with 4: 10 mg/kg i.p. versus 4 at 300 µg/kg
[4] = biological target: T1, CXCR4 (Homo sapiens, UniProt P61073); experiment: cAMP assay; type: cell-based
[5] = biological target: T1, CXCR4; experiment: Ca2+ flux induced by CXCR4/CXCL12 interaction; type: cell-based; settings: Gq pathway; data not shown
[6] = tested on: CXCR4/CXCL12-mediated Matrigel invasion of MDA-MB-231 cells; experiment: Matrigel invasion assay, CXCL12 as chemoattractant; type: cell-based; settings: 10 nM compound, 200 ng/mL CXCL12, 0.01 µM
[7] = tested on: Melanoma OMM2.3 cells; experiment: Uveal melanoma micrometastasis mouse model; type: in vivo; settings: for Number of hepatic micrometastases: control around 90
[8] = Blood clearance and bioavailability of 26 in mice; settings: mouse, in vivo
[9] = tested on: MDA-MB-231 cells in Matrigel plugs; experiment: In vivo tumor angiogenesis assay; set-up: species or system mouse; settings: 300 µg/kg daily s.c., 10 days, nude mice
[10] = tested on: bleomycin induced lung fibrosis; experiment: Bleomycin induced lung fibrosis model; type: in vivo, mouse; settings: 300 µg/kg i.p. daily, day 20 after bleomycin

CCR5, sequence (P51681 whole entry): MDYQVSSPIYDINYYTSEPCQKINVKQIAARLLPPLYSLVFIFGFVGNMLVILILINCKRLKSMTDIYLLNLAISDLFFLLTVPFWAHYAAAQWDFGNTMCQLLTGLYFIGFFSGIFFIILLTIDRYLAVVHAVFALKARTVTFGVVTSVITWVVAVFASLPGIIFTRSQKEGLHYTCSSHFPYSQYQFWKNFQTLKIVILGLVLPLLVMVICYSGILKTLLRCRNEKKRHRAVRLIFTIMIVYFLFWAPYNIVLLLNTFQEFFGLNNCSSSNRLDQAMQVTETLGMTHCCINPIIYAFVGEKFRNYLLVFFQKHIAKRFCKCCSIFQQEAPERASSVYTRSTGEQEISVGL
T1 sequence (P61073 whole entry): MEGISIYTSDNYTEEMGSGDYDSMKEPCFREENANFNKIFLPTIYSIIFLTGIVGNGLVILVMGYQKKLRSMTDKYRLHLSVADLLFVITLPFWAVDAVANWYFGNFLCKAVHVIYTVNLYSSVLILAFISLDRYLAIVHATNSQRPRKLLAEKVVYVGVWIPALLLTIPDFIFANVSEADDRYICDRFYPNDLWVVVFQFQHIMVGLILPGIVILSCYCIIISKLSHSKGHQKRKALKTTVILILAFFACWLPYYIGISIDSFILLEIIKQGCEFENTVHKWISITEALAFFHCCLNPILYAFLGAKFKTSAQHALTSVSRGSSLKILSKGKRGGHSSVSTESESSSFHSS

Molecule: c1ccc(NCc2ccc(CNc3ccccn3)cc2)nc1 [Compound 5, WZ811]
Effect on blocking CCL5 stimulating CCR5 (cAMP) [1]: no significant effect
Bioavailability [2]: poor bioavailability
In vivo efficacy [2]: failed to exhibit any in vivo efficacy

Molecule: Fc1cccc(NCc2ccc(CNc3ncccn3)cc2)n1 [Compound 10e, N-(4-((6-fluoropyridin-2-ylamino)methyl)benzyl)pyrimidin-2-amine]
Paw inflammation inhibition percentage ([3]; C57BL/6J mice): more than 50%
Paw inflammation suppression compared with 4 [3]: comparable to 4

Molecule: Clc1cccc(NCc2ccc(CNc3ncccn3)cc2)n1 [Compound 10g, N-(4-((6-chloropyridin-2-ylamino)methyl)benzyl)pyrimidin-2-amine]
Paw inflammation inhibition percentage ([3]; C57BL/6J mice): more than 50%
Paw inflammation suppression compared with 4 [3]: comparable to 4

Molecule: CSc1nccc(NCc2ccc(CNc3ncc(F)cn3)cc2)n1 [Compound 21b, 5-fluoro-N-(4-((2-(methylthio)pyrimidin-4-ylamino)methyl)benzyl)pyrimidin-2-amine]
Paw inflammation suppression compared with 4 [3]: comparable to 4
Invasion Inhibition 10nM [6]: 62%

Molecule: Fc1cnc(Cl)nc1NCc1ccc(CNc2ccnc(NCCN3CCOCC3)n2)cc1 [Compound 26]
Number of hepatic micrometastases ([7]; 10 mg/kg i.p. daily): around 40
Effect on blocking CCL5 stimulating CCR5 (cAMP) [1]: no significant effect
Paw inflammation suppression compared with 4 [3]: comparable to 4
IC50 [4]: ~1 nM
Interrupting CXCL12/CXCR4-mediated cAMP modulation [4]: effective
Invasion Inhibition 10nM [6]: > 60%
Oral bioavailability [8]: lack of oral bioavailability
Block of Ca2+ flux induced by CXCR4/CXCL12 interaction [5]: do not block

Molecule: TN14003 [Compound 4]
Decrease of hepatic micrometastases ([7]; 300 µg/kg i.p. daily, nude mice): about 50%
Number of hepatic micrometastases ([7]; 300 µg/kg i.p. daily): around 40
Angiogenesis inhibition (hemoglobin content of Matrigel plugs) [9]: about 70%
Paw inflammation suppression ([3]; 300 µg/kg i.p. daily, C57BL/6J mice): about 50%
Lung fibrosis inhibition [10]: 85%

Next, values leading:

Interrupting CXCL12/CXCR4-mediated cAMP modulation [4]: effective
Block of Ca2+ flux induced by CXCR4/CXCL12 interaction [5]: do not block
Molecule: Fc1cnc(NCc2ccc(CNc3nccc(C(F)(F)F)n3)cc2)nc1 [Compound 21a, N-(4-((5-fluoropyrimidin-2-ylamino)methyl)benzyl)-4-(trifluoromethyl)pyrimidin-2-amine]

Effect on blocking CCL5 stimulating CCR5 (cAMP) [1]: no significant effect
Molecule: CCOCCN1CCN(C(=O)c2cnc(NCc3ccc(CNc4ncc(F)cn4)cc3)nc2C(F)(F)F)CC1 [Compound 21c, (4-(2-ethoxyethyl)piperazin-1-yl)(2-(4-((5-fluoropyrimidin-2-ylamino)methyl)benzylamino)-4-(trifluoromethyl)pyrimidin-5-yl)methanone]
